The subject of the data set is DMS114 SCLC xenograft. An excerpt:
• (i) Compound Formulation: Compound 1 was formulated as a wet-milled nanosuspension (24 hr milling in 2.5% w/v polyvinyl pyrrolidone (PVP), 0.5% w/v Macrogol 15 Hydroxystearate (Kolliphor HS15) aqueous, with <1 μm particle-size distribution (PSD; ˜650 nm median diameter (d50)) for oral gavage administration. • (ii) Cell Implant, Compound Dosing and Tissue Collection: Immune deficient female mice with a severe combined immunodeficiency (SCID) mutation in a non-obese diabetic background (NOD SCID; 6 to 8 week old; NOD.CB17-Prkdcscid/NCrCrl from Charles River Laboratories) received a subcutaneous (SC) implant of 7.5×10^6 DMS114 cells (in 1:1 matrigel (Trevigen, Cultrex BME Path Clear®, Lot #: 30625F14), total volume 200 μl) into the right flank. Tumor volume and body weight were measured twice a week. On Day 20 post implant, 64 mice were randomized, based on tumor size at a geometric mean (geomean) of about 160 mm^3, into 6 groups corresponding to dose (Table 1). Compounds were administered at 10 ml/kg by oral gavage (Compound 1; BID ( 7/17 hours apart)) or intraperitoneal injection (cisplatin), respectively. The cisplatin dosing schedule was once a week for 3 weeks (Q7Dx3) and started 7 days after the randomization and treatment initiation with Compound 1.
On Day 55, study groups 1, 2, 3 and 4 were terminated (Table 1). Tumor (snap frozen) samples were collected at 4 hours post last dose for pharmacodynamic (PD) analysis. […] Tumor samples from groups 5 and 6 were collected 3 hours post last dose depending on available tumor sizes. All procedures performed on these animals were in accordance with regulations and established guidelines and were reviewed and approved by Pfizer's Institutional Animal Care and Use Committee. • (iii) Data Interpretation: For each experiment, calculations were performed and graphs created in Microsoft Excel and GraphPad Prism version 7.02 respectively. The tumor volume was calculated as 0.5×length×width^2. Tumor growth inhibition (TGI) was determined by the formula: % TGI=[1−(Vtx−Vt0/Vcx−Vc0)]×100, where Vc, Vt are the geometric means of control and treated groups. X=day X on study and 0=initial day of dosing. ELISA Assay: • (i) Histone Extraction: Histone extraction was performed using the EpiQuick Histone Extraction Kit (Epigentek OP0006). Frozen tumor samples were cut and homogenized using cold mortar and pestle on dry-ice. The homogenized mixture was transferred to a 1.5 mL tube in 1× Pre-Lysis Buffer (200 mg/mL) containing phenylmethylsulfonyl fluoride (PMSF). Samples were gently mixed, incubated on ice for 15 minutes, and spun down at 3,000 rpm for 5 minutes at 4° C. The tissue pellet was resuspended in 3 volumes (approximately 200 μL per 100 mg of tissue) of lysis buffer from the Histone Extraction Kit, incubated on ice for 30 minutes, and spun down at 12,000 rpm for 5 minutes at 4° C. Balance-DTT buffer was prepared by adding DTT Solution to balance buffer at a 1:500 ratio. The supernatant (containing acid soluble proteins) was transferred to a new 1.5 mL tube and 0.3 volumes of Balance-dithiothreitol (DTT) buffer from the Histone Extraction Kit were immediately added to each sample. The tumor lysate was briefly sonicated for 4 cycles (30 seconds on and 30 seconds off) at high intensity using the Bioruptor Plus (Diagenode #601020001). Extracts were aliquoted and stored at −20° C. (short term) or −80° C. (long term). Protein concentration was quantified using the Coomassie Plus (Bradford) Assay Kit (Thermo #23236). • (ii) H3K27Me3 and Me2 ELISA Assay: Histone extracts were diluted to a final concentration of 400 ng (or 800 ng) in 100 μL of coating buffer (phosphate buffered saline (PBS) containing 0.05% bovine serum albumin (BSA)).

Consider 1 compound from patent US11529344B2, “EZH2 inhibitor combination therapies” (Pfizer Inc., priority 2017, dated 2022).

“Also recorded” adds a separate entry of the source.

As to `COc1cc(C)[nH]c(=O)c1CN1CCc2c(Cl)cc([C@H](OC)C3COC3)c(Cl)c2C1=O` [Compound 1, 5,8-dichloro-2-[(4-methoxy-6-methyl-2-oxo-1,2-dihydro-pyridin-3-yl)methyl]-7-[(R)-methoxy(oxetan-3-yl)methyl]-3,4-dihydroisoquinolin-1(2H)-one], the “TGI by Day 55” value (Compound 1 100 mg/kg BID PO, cisplatin 4 mg/kg IP Q7Dx3, alone or combined) was found to be 50%. The “anti-tumor benefit vs vehicle control group” value (Compound 1 100 mg/kg BID and 300 mg/kg BID, Day 55) is “significant anti-tumor benefit”. The “tolerability / body weight loss” value (Compound 1 PO BID, cisplatin 4 mg/kg IP Q7Dx3, combination with Compound 1 100 mg/kg BID) is on record as “well tolerated with limited bodyweight loss; also recorded: minimal toxicity”. The complete tumor regressions result (Compound 1 monotherapy arms, 30, 100 and 300 mg/kg BID) is given as “No complete tumor regressions”. Further, the “tumors regressed or progressed compared to the starting tumor burden” value (Day 55, Compound 1 100 mg/kg BID, cisplatin 4 mg/kg Q7Dx3) was “all tumors had progressed”. Besides, where the note is “survival cut-off at 500 mm^3 tumor burden”, the “survival benefit, Log-rank test (Mantel-Cox)” value was “did not reach the P<0.05 significance level”. The same compound had a median survival (survival cut-off at 500 mm^3 tumor burden, Compound 1 100 mg/kg BID, cisplatin 4 mg/kg Q7Dx3) of 39 days.
